According to patent publication US20110028566A1, “COMPOSITIONS AND PRODUCTS CONTAINING CYCLOALIPHATIC DIOL ANTIMICROBIAL AGENTS AND METHODS OF USING THE COMPOSITIONS AND PRODUCTS” (EASTMAN CHEMICAL COMPANY, priority 2009, published 2011):
“And” between values parts separate entries of the source, which are not always exact repeats. Identical values can stand only once.

Columns and labels:
Experiment in all cases: MIC determination and synergy testing (Kull synergy index), microplate
Format in all cases: cell-based
[1] = system: Candida albicans ATCC 10231; set-up: QA/a: unit not given beside the values; details: for QA, MIC of CHDM alone / QA/a: concentration of CHDM alone (QA, MIC): C. albicans; for QA/a: concentration of CHDM alone (QA, MIC): Table 46
Protocol: The test cultures are listed in Table 7 along with the incubation temperatures used for growth and minimum inhibitory concentration (MIC) testing. […] C. albicans was cultured in Sabouraud dextrose broth (SDB) for approximately 44-52 hours for preparation of inoculum. A. niger was cultured on Sabouraud dextrose agar (SDA) for 3-4 days until there was confluent growth and visible spore formation. Spores were harvested from the SDA plates by flooding the surface of the plate with 5-10 mL of phosphate-buffered saline (PBS) and gently spreading the liquid across the surface of the plate with a sterile T-shaped plastic spreader (Copan Diagnostics) until there was a well-mixed suspension of spores. The resulting spore suspension was collected using a serological pipette and stored at 2-8° C. until use.
Inoculum concentration was determined by dilution plating of the cultures or spore suspension. A serial dilution in PBS was made to 10^−8 for the bacterial cultures or 10^−5 for the fungal cultures. Fifty or 100 μL of the final dilution was spread on two Trypticase-soy agar (TSA) plates for bacteria or two SDA plates for fungi. After 24 to 48 hours plates were counted and the concentrations used in each experiment were calculated.
The antimicrobial agents tested for synergy along with the respective diluents and working stock solution concentrations are shown below. For determination of MIC ranges, individual antimicrobial agent stock solutions were added to sterile medium to yield the highest level test concentrations, and then serially diluted in the medium to prepare the range of test concentrations. For synergy testing individual test concentrations were prepared in sterile medium, and then blended to form the desired combinations.
MICs were determined using a high-throughput microplate method. Individual antimicrobial agents were added to TSB (pH 7.3) for bacterial testing or SDB (pH 5.6) for fungal testing at the highest concentration to be tested. A serial dilution series was prepared at a dilution ratio of 1:1.3333 such that a one log range was covered in nine dilutions. Two-hundred microliters of the diluted antimicrobial agents were dispensed into four wells each of a sterile, 96-well, flat-bottom microplate (Nalge Nunc International). Four additional wells of the highest concentration were dispensed to serve as uninoculated high-level controls. Eight additional wells containing only broth medium were also prepared, four to serve as negative controls and four as positive controls. Three wells of each antimicrobial agent dilution were inoculated with one of the test strains in Table 7. The final well of each antimicrobial agent dilution was left uninoculated to serve as a control (and means of compensating) for any absorbance/turbidity due to the test compounds.
Microplates were inoculated using the cultures or spore suspensions prepared as described above. The S. aureus cultures were used undiluted, while the E. coli and P. aeruginosa cultures were used either undiluted or after a 1:2 dilution in sterile TSB. The C. albicans cultures were used either undiluted or following a 2-fold concentration by centrifugation. One of two means of inoculation was used to deliver a final concentration of approximately 10^5 colony-forming units (CFU)/mL of C. albicans, 10^5 spores/mL of A. niger, or 10^6 CFU/mL of bacteria. The primary method used a stainless steel pin replicator (Nalge Nunc International) mounted on a hand-operated bench-top press (Schmidt Technology Corporation) fitted with a custom-built microplate holder to dispense one microliter of each inoculum from a “master” plate containing 50-100 μL of culture into the wells of the test plate. The pin replicator was sterilized before and between inoculations by immersing in ethanol and flaming. The alternative method of inoculation was by directly pipetting 20 μL of a 1:20 dilution of each culture or spore suspension into the appropriate wells of the test plates.

[2] = system: Pseudomonas aeruginosa ATCC 27853; details: for QA, MIC of CHDM alone: plate 169E (CG series)
Procedure, shortened: (§1)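 Broth microdilution in TSB (pH 7.3) for bacteria or SDB (pH 5.6) for C. albicans, 1:1.3333 serial dilutions covering one log in nine steps, agents alone or blended for synergy; triplicate wells inoculated to ~10^6 CFU/mL bacteria or ~10^5 CFU/mL yeast; uninoculated wells correct compound turbidity.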

[3] = system: Staphylococcus aureus ATCC 25923; details: for QA, MIC of CHDM alone / QA/a: concentration of CHDM alone (QA, MIC): S. aureus; for QA/a: concentration of CHDM alone (QA, MIC): Table 49
Procedure, shortened: as §1

[4] = P. aeruginosa, plate 126E, day 2, PE and CHDM

`OCC1CCC(CO)CC1` (stereo not shown) [1,4-CHDM, 1,4-cyclohexanedimethanol] was tested, and the “QA, MIC of CHDM alone” value ([1]; day 2 of incubation, plate 128B (MP series)) was 3.00 weight percent, the “QA, MIC of CHDM alone” value ([1]; day 2 of incubation, plates 116B, 240B, 252B (PE series)) was 5.85 weight percent and 6.67 weight percent and 3.56 weight percent and the “QA, MIC of CHDM alone” value ([1]; day 2 of incubation, plates 117B, 226B, 254B (CG series)) was 5.63 weight percent and 5.00 weight percent and 3.56 weight percent. For the same molecule, the “QA, MIC of CHDM alone” value ([1]; day 3 of incubation, plate 128B (MP series)) was 4.00 weight percent, the “QA, MIC of CHDM alone” value ([1]; day 3 of incubation, plates 116B, 240B, 252B (PE series)) was 4.75 weight percent and 5.85 weight percent and 6.67 weight percent and the “QA, MIC of CHDM alone” value ([1]; day 3 of incubation, plates 117B, 254B (CG series)) was 4.75 weight percent and 6.67 weight percent. It also gave a QA/a ([1]; CHDM alone (QA) or in combination with BA:DHA (a), plate 131B, day 3) of 5.33, a QA/a ([1]; CHDM alone (QA) or in combination with BA:DHA (a), plate 131B, day 4) of 5.33 and a QA/a ([1]; CHDM alone (QA) or in combination with BA:DHA (a), plate 239B, day 2) of 5.85. The QA/a ([1]; CHDM alone (QA) or in combination with BA:DHA (a), plate 239B, day 3) was 5.85, the QA/a ([1]; CHDM alone (QA) or in combination with BA:DHA (a), plate 258B, day 2) was 5.00 and the QA/a ([1]; CHDM alone (QA) or in combination with BA:DHA (a), plate 258B, day 3) was 6.67. For the same molecule, the QA/a ([1]; CHDM alone (QA) or in combination with DMDM hydantoin (a), plate 241B, day 2) was 5.85, the QA/a ([1]; CHDM alone (QA) or in combination with DMDM hydantoin (a), plate 241B, day 3) was 5.85 and the QA/a ([1]; CHDM alone (QA) or in combination with DMDM hydantoin (a), plate 244B, day 2) was 6.00. It also gave a QA/a ([1]; CHDM alone (QA) or in combination with DMDM hydantoin (a), plate 244B, day 3) of 8.00, a QA/a ([1]; CHDM alone (QA) or in combination with DMDM hydantoin (a), plate 263B, day 2) of 8.00 and a QA/a ([1]; CHDM alone (QA) or in combination with DMDM hydantoin (a), plate 263B, day 3) of 8.00. The QA/a ([1]; CHDM alone (QA) or in combination with DMDM hydantoin (a), plate 264B, day 2) was 6.67, the QA/a ([1]; CHDM alone (QA) or in combination with DMDM hydantoin (a), plate 264B, day 3) was 6.67 and the QA/a ([1]; CHDM: MIC alone (QA) or conc. in combination with CP (a), plate 130B, day 2) was 3.00. The QA/a ([1]; CHDM: MIC alone (QA) or conc. in combination with CP (a), plate 130B, day 3) was 4.00, the QA/a ([1]; CHDM: MIC alone (QA) or conc. in combination with CP (a), plate 227B, day 2) was 5.63 and the QA/a ([1]; CHDM: MIC alone (QA) or conc. in combination with CP (a), plate 227B, day 3) was 5.63. For the same molecule, the QA/a ([1]; CHDM: MIC alone (QA) or conc. in combination with CP (a), plate 256B, day 2) was 6.67, the QA/a ([1]; CHDM: MIC alone (QA) or conc. in combination with CP (a), plate 256B, day 3) was 6.67 and the QA/a ([1]; CHDM: MIC alone (QA) or conc. in combination with MIT (a), plate 162B, day 3) was 5.33. The QA/a ([1]; CHDM: MIC alone (QA) or conc. in combination with MIT (a), plate 200B, day 2) was 6.23, the QA/a ([1]; CHDM: MIC alone (QA) or conc. in combination with MIT (a), plate 200B, day 3) was 6.23 and the “QA/a: concentration of CHDM alone (QA, MIC)” value ([1]; Day 2) was 4.00 weight percent and 3.38 weight percent. For the same molecule, the “QA/a: concentration of CHDM alone (QA, MIC)” value ([1]; Day 3) was 4.50 weight percent, the QA/a ([2]; CHDM alone (QA) or in combination with BA:DHA (a), plate 149E, day 1) was 1.31 and the QA/a ([2]; CHDM alone (QA) or in combination with BA:DHA (a), plate 149E, day 2) was 1.75. For the same molecule, the QA/a ([2]; CHDM alone (QA) or in combination with DMDM hydantoin (a), plate 150E, day 1) was 1.31, the QA/a ([2]; CHDM: MIC alone (QA) or conc. in combination with CP (a), plate 148E, day 1) was 1.31 and the QA/a ([2]; CHDM: MIC alone (QA) or conc. in combination with MIT (a), plate 147E, day 1) was 1.31. For the same molecule, the QA/a ([2]; CHDM: MIC alone (QA) or conc. in combination with MIT (a), plate 147E, day 2) was 2.33, the QA/a ([2]; CHDM: MIC alone (QA) or conc. in combination with MIT (a), plate 210E, day 1) was 1.75 and the QA/a ([2]; CHDM: MIC alone (QA) or conc. in combination with MIT (a), plate 210E, day 2) was 1.75. The QA/a ([2]; CHDM: MIC alone (QA) or conc. in combination with MIT (a), plate 249E, day 1) was 1.80, the QA/a ([2]; CHDM: MIC alone (QA) or conc. in combination with MIT (a), plate 249E, day 2) was 1.80 and the QA/a ([2]; CHDM: MIC alone (QA) or conc. in combination with MP (a), plate 146E, day 1) was 1.31. The “QA, MIC of CHDM alone” value ([2]; P. aeruginosa, day 1 of incubation) was 1.31 weight percent, the “QA, MIC of CHDM alone” value ([2]; P. aeruginosa, day 2 of incubation) was 1.75 weight percent and the “QA, MIC of CHDM alone” value ([2]; P. aeruginosa, day 3 of incubation) was 1.75 weight percent. For the same molecule, the “QA/a: concentration of CHDM (MIC alone, or in the combination at an inhibitory concentration)” value [2, 4] was 1.75 weight percent, the “SI (synergy index)” value [2, 4] was 1.00 and the “QA/a: concentration of CHDM alone (QA, MIC)” value ([2]; Table 43, P. aeruginosa, Day 1) was 1.31 weight percent and 1.35 weight percent. The “QA/a: concentration of CHDM alone (QA, MIC)” value ([2]; Table 43, P. aeruginosa, Day 2) was 1.75 weight percent and 1.80 weight percent and 1.35 weight percent, the “QA/a: concentration of CHDM alone (QA, MIC)” value ([2]; Table 45, P. aeruginosa, Day 1) was 1.31 weight percent and 1.35 weight percent and 1.80 weight percent and the “QA/a: concentration of CHDM alone (QA, MIC)” value ([2]; Table 45, P. aeruginosa, Day 2) was 2.33 weight percent and 1.75 weight percent and 1.80 weight percent. The “QA/a: concentration of CHDM alone (QA, MIC)” value ([2]; Table 48, P. aeruginosa, Day 1) was 1.75 weight percent and 1.31 weight percent, the “QA/a: concentration of CHDM alone (QA, MIC)” value ([2]; Table 48, P. aeruginosa, Day 2) was 2.33 weight percent and 1.75 weight percent and the QA/a ([3]; CHDM alone (QA) or in combination with BA:DHA (a), plate 139D, day 1) was 3.11. For the same molecule, the QA/a ([3]; CHDM alone (QA) or in combination with BA:DHA (a), plate 139D, day 2) was 4.15, the QA/a ([3]; CHDM alone (QA) or in combination with BA:DHA (a), plate 220D, day 1) was 3.30 and the QA/a ([3]; CHDM alone (QA) or in combination with BA:DHA (a), plate 220D, day 2) was 3.30. The QA/a ([3]; CHDM alone (QA) or in combination with BA:DHA (a), plate 235D, day 1) was 5.00, the QA/a ([3]; CHDM alone (QA) or in combination with BA:DHA (a), plate 235D, day 2) was 5.00 and the QA/a ([3]; CHDM: MIC alone (QA) or conc. in combination with CP (a), plate 138D, day 1) was 3.11. The QA/a ([3]; CHDM: MIC alone (QA) or conc. in combination with CP (a), plate 138D, day 2) was 4.15, the QA/a ([3]; CHDM: MIC alone (QA) or conc. in combination with MIT (a), plate 137D, day 2) was 4.15 and the QA/a ([3]; CHDM: MIC alone (QA) or conc. in combination with MP (a), plate 166D, day 1) was 3.30. The QA/a ([3]; CHDM: MIC alone (QA) or conc. in combination with MP (a), plate 166D, day 2) was 3.30, the “QA, MIC of CHDM alone” value ([3]; day 1 of incubation, plate 125D (CG series)) was 3.11 weight percent and the “QA, MIC of CHDM alone” value ([3]; day 1 of incubation, plates 124D, 219D, 234D (PE series)) was 3.30 weight percent and 3.75 weight percent and 3.11 weight percent. For the same molecule, the “QA, MIC of CHDM alone” value ([3]; day 2 of incubation, plate 125D (CG series)) was 3.11 weight percent, the “QA, MIC of CHDM alone” value ([3]; day 2 of incubation, plates 124D, 219D (PE series)) was 3.11 weight percent and 3.30 weight percent and the “QA/a: concentration of CHDM alone (QA, MIC)” value ([3]; Day 1) was 3.11 weight percent. The “QA/a: concentration of CHDM alone (QA, MIC)” value ([3]; Day 2) was 4.15 weight percent.
